The values below come from US12240811B2, “N-heterocyclic five-membered ring-containing capsid protein assembly inhibitor, pharmaceutical composition and uses thereof” (CHIA TAI TIANQING PHARMACEUTICAL GROUP CO., LTD., priority 2019, dated 2025).

pEC50: −log10 of the molar value.

Usually pEC50 stands for the EC50 on a negative log10 scale, so that one unit is a factor of ten.

Data set [1] concerns HBV DNA in HepG2.2.15 cells. As to the kind of experiment: In vitro cell HBV DNA inhibitory activity in HepG2.2.15 cells. It counts as cell-based. Particulars: Hepatitis B virus, 144 h, 6 days treatment, intracellular capsid HBV DNA by qPCR, read-out: EC50, anti-HBV activity in HepG2.2.15 cells. As to the method:
A bottle of HepG2.2.15 (Wuhan Institute of Virology) or HepAD38 cells in good exponential growth state was taken, washed once by adding 5 mL PBS, and then thereto was added 3 mL trypsin. After digesting at room temperature for 5 min, 2 mL trypsin was discarded, and then the sample was placed in a cell culture incubator and digested for 10 min. The cells were taken out and observed under a microscope (whether the cells were individually round and there was no adhesion between the cells). 10 mL complete medium was added to terminate the digestion. After pipetting into a single cell suspension, 10 μL of the cell suspension was taken out for cell counting with a cell counter, and then diluted with a complete medium and adjusted to a cell density of 1*10^5 cells/mL. […]
Compounds dissolved in DMSO were subjected to two-fold gradient dilution (10 concentrations in total) with complete medium. […] After lysing at room temperature for 10 min, DNA was extracted, and HBV DNA in the intracellular viral capsid was measured by real-time fluorescence quantitative PCR. The inhibition rate was calculated based on the Ct value, and the EC50 value was calculated by the four-parameter method.
(Quantitative PCR measures a nucleic acid by following its amplification.)

A short description of data set [2]: Stability of liver microsomes in vitro, human. Format: in vitro ADME. As to the method: (§1) 300 μL of a final incubation system contains 30 μL of liver microsomes (protein concentration: 0.15 mg/mL, Corning), 30 μL NADPH+MgCl2, 3 μL substrate (formulated with acetonitrile), and 237 μL PBS buffer. Duplicate incubation systems of 0.3 mL each were formulated for each species. A total volume of 270 μL of a uniformly mixed solution of the substrate and the enzyme was formulated in each tube, the solution and NADPH were pre-incubated at 37° C. for 5 minutes, respectively. Then 30 μL of the mixed solution of NADPH+MgCl2 was added for reaction. 50 μL of the reaction solution was taken out at 0, 10, 30, and 60 mins, and the reaction was terminated with 300 μL of ice acetonitrile containing an internal standard.
(§2) Sample pre-treatment: To 50 μL of the incubated sample was added 300 μL of ice acetonitrile containing diazepam as an internal standard and then precipitated. After vortexing for 5 minutes, the sample was centrifugated (12000 rpm, 4° C.) for 10 minutes. 75 μL of the supernatant was pipetted into a 96-well plate, and then diluted with 75 μL ultrapure water and mixed uniformly. 0.5 μL of the resulting solution was injected and analyzed by LC-MS/MS.

Data set [3] is described as follows: Stability of liver microsomes in vitro, rat. Format: in vitro ADME. As to the method:
as §1, §2
A general note: Microsomes from liver hold many membrane-bound enzymes, among them those of drug oxidation.

The nature of data set [4]: Stability of liver microsomes in vitro, mouse. It counts as in vitro ADME. The method, then:
as §1, §2

Another data set concerns HBV DNA in serum. As to the kind of experiment: pAAV/HBV mouse model. It counts as in vivo, C57BL/6 mice. Particulars: 3 mpk intragastric once daily. As to the method: 6-8 week old male C57BL/6 mice (Shanghai Lingchang Biotechnology Co., Ltd.) were used, and each mouse was injected with purified recombinant plasmid pAAV/HBV1.2 ([…]) dissolved in PBS equivalent to a volume of about 10% of its body weight through the tail vein within 3-8 s. Blood was collected from the orbits of the mice at 3 days after the plasmid injection to detect serum HBV DNA. The model mice having uniform serum DNA were selected and divided into: a model control group, a vehicle control group, and a test substance group. Mice in each group were continuously administered intragastrically once daily for 10 days at a dose of 3 mg/kg. The mouse serum was taken on day 0, 4, 7, and 10 after the administration, and the mice were sacrificed on day 10 to take liver tissue samples. The HBV DNA copy numbers in serum and liver of the mice were detected by fluorescent quantitative PCR method.

Turning to `Cc1[nH]c(C(=O)C(=O)N[C@H](C)C(F)(F)F)c(C)c1C(=O)Nc1ccc(F)c(C#N)c1` [Example 2, (R)—N-(3-cyano-4-fluorophenyl)-2,4-dimethyl-5-(2-oxo-2-((1,1,1-trifluoroprop-2-yl)amino)acetyl)-1H-pyrrole-3-carboxamide], the pEC50 in data set [1] is 7.97. Further, in data set [2], the “Remaining (%) of human liver microsomes at 60 min” value is 100%. Further, the “Remaining (%) of rat liver microsomes at 60 min” value in data set [3] is 99%. The “Remaining (%) of mouse liver microsomes at 60 min” value in data set [4] is recorded as 100%. The “Reduction levels (log10) of HBV DNA in serum, Day 4” value with HBV DNA in serum (Day 4) was determined as 2.92 log10. In addition, in the data set with HBV DNA in serum (Day 7), the “Reduction levels (log10) of HBV DNA in serum, Day 7” value is on record as 4.09 log10. In the data set with HBV DNA in serum (Day 10), the “Reduction levels (log10) of HBV DNA in serum, Day 10” value was determined as 2.42 log10.
